Where two headings read alike, the source gives them in different places.
Assays:
[1] = tested on: NIH 3T3 mouse fibroblast cells; assay: Mitogen-induced cell proliferation; assay type: cell-based; details: for inhibition at 10 µM: NIH3T3, read-out: Mitogen-induced cell proliferation % Inhibition; for IC50: NIH3T3, read-out: Mitogen-induced cell proliferation IC50
Source text: Other cell lines, e.g., cancer cells, endothelial cells and fibroblasts, as well as many others, may be used in the cell proliferation assay. Selection of a particular cell line will depend in part on the desired application, and is well within the capabilities of an ordinarily skilled artisan.

[2] = molecular target: Gardos channel of erythrocytes (Homo sapiens, UniProt O15554); assay: cell-based; details: for inhibition at 10 µM: read-out: Gardos Channel % Inhibition
clinical = assay type: in vivo; details: human, in vivo, read-out: Levels Plasma; for concentration at 6 day of CLT dosing: CLT day 6; for concentration at 10 day (wash-out): Wash-out day 10; for concentration at 13 day (wash-out): Wash-out day 13; for concentration at 20 day (wash-out): Wash-out day 20
[3] = erythrocytes, read-out: Gardos Channel IC50
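Wherever Levels Plasma is given: oral tablet given every 12 h for six days, about 14 mg/kg per day for this subject, with levels then followed in plasma.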

Gardos channel of erythrocytes, sequence (O15554 whole entry): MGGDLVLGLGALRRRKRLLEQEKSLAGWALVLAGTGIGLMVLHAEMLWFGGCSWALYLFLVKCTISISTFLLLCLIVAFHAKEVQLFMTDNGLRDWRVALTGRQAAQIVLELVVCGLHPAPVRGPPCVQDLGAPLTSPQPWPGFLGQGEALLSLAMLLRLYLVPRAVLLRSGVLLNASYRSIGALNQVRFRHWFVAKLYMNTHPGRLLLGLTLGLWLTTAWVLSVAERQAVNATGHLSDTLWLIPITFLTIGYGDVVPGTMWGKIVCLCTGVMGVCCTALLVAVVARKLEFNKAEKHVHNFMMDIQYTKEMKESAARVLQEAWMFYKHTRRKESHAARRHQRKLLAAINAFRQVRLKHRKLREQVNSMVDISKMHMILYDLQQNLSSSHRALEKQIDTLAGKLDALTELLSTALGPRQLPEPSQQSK

Row | Compound | inhibition at 10 µM [1] [%] | IC50 [1] [nM] | IC50 [2, 3] [nM] | inhibition at 10 µM [2] [%] | melting point [°C] | IC50 [2] [nM] | also measured
1 | O=CC(c1ccccc1)(c1ccccc1)c1ccccc1Cl [Compound 15, 2-chlorophenyl-diphenylacetaldehyde] | 88.6 | 2600 | 96.8 | 100 | 126 to 129 | – | –
2 | O=CC(c1ccccc1)(c1ccccc1)c1ccccc1 [Compound 16, triphenylacetaldehyde] | 99.4 | 400 to 2000 | 87 | 98 | 91 to 96 | – | –
3 | Clc1ccccc1C(c1ccccc1)c1ccccc1 [Compound 17, 2-chlorophenyl-diphenylmethane] | 91.8 | 3900 | – | 100 | 74 to 76 | 860 | concentration at 6 day of CLT dosing (clinical; 500 mg, Subject A): 1800 nM; concentration at 6 day (wash-out) (clinical; 500 mg, Subject A, Wash-out day 6): < 100 nM; concentration at 10 day (wash-out) (clinical; 500 mg, Subject A): < 100 nM; concentration at 13 day (wash-out) (clinical; 500 mg, Subject A): 0 nM; concentration at 20 day (wash-out) (clinical; 500 mg, Subject A): 0 nM; concentration at 3 day of CLT dosing (clinical; 500 mg, Subject B, CLT day 3): 1650 nM; concentration at 6 day of CLT dosing (clinical; 500 mg, Subject B): 2500 nM; concentration at 8 day (wash-out) (clinical; 500 mg, Subject B, Wash-out day 8): < 100 nM; concentration at 10 day (wash-out) (clinical; 500 mg, Subject B): < 100 nM; concentration at 13 day (wash-out) (clinical; 500 mg, Subject B): 0 nM; concentration at 20 day (wash-out) (clinical; 500 mg, Subject B): 0 nM; concentration at 3 day of CLT dosing (clinical; Subject A, CLT day 3, oral CLT 500 mg every twelve hours): 700 nM
4 | NC(=O)CC(c1ccc(Cl)cc1)(c1ccc(Cl)cc1)c1ccc(Cl)cc1 [Compound 30, tris(4-chlorophenyl)propionamide] | 99 | 900 | – | 97 | 158 to 160 | 272 | –
5 | N#CC(c1ccccc1)(c1ccccc1)c1ccccc1F [Compound 32, (2-fluorophenyl)-diphenylacetonitrile] | 54 | – | – | 95.7 | 144 to 145 | 68 | –
6 | O=C(O)CC(c1ccccc1)(c1ccccc1)c1ccccc1Cl [Compound 36, 3-(2-chlorophenyl)-3,3-diphenylpropionic acid] | 92 | 600 | 3110 | 78.6 | 180 to 182 | – | –
7 | COC(=O)c1ccc(C(O)(c2ccccc2)c2ccccc2)cc1 [Compound 62] | 31 | – | – | 98 | – | 98 | –
8 | OC(c1ccccc1)(c1ccccc1)c1cccnc1 [Compound 63] | 37 | – | – | 69 | – | 1020 | –
9 | N#CCCC(c1ccccc1)(c1ccccc1)c1ccccc1 [Compound 64, 4,4,4-triphenylbutronitrile] | 63 | 5800 | 88 | 100 | – | – | –
10 | O=CCC(c1ccc(Cl)cc1)(c1ccc(Cl)cc1)c1ccc(Cl)cc1 [Compound 65] | 99 | 1600 | – | 98 | – | 435 | –
11 | Brc1ccc(C(c2ccccc2)c2ccc(Br)cc2)cc1 [Compound 66] | 73 | – | – | 67.2 | – | 384 | –
12 | CCC(c1ccccc1)(c1ccccc1)c1ccc(O)cc1 [Compound 67] | 98 | 1400 | 430 | 96.1 | – | – | –
13 | OC(c1ccccc1)(c1ccccc1)c1ccc(C(F)(F)F)cc1 [Compound 68] | 98 | 3100 | – | 97.5 | – | 236 | –
14 | O=C(CBr)C(c1ccccc1)(c1ccccc1)c1ccccc1 [Compound 69] | 99 | – | 25 | 100 | – | – | –
15 | N#CCc1ccc([Si](c2ccccc2)(c2ccccc2)c2ccccc2)cc1 [Compound 71] | 97 | 1100 | – | 0.4 | – | – | –
16 | OCCCC[Si](c1ccccc1)(c1ccccc1)c1ccccc1 [Compound 73] | 99 | 2500 | – | 98.9 | – | 371 | –

Row | Compound | inhibition at 10 µM [1] [%] | IC50 [1] [nM] | IC50 [2, 3] [nM] | inhibition at 10 µM [2] [%] | melting point [°C] | IC50 [2] [nM] | also measured
17 | O=C(O)CCC(c1ccccc1)(c1ccccc1)c1ccccc1 [Compound 74] | 70 | – | 1400 | 97.5 | – | – | –
18 | NC(=O)C(c1ccccc1)(c1ccccc1)c1ccccc1Cl [Compound 75, (2-chlorophenyl)-diphenylacetamide] | 90 | – | 6 | 98 | 197 to 198.5 | – | –
19 | NC(=O)CCC(c1ccccc1)(c1ccccc1)c1ccccc1 [Compound 78] | 72 | – | 220 | 95 | – | – | –
20 | O=CCC(c1ccccc1)(c1ccccc1)c1ccccc1Cl [Compound 79, 3-(2′-chlorophenyl)-3,3-diphenylpropanal] | 99 | 2700 | 83 | 96 | 92 to 93 | – | –
21 | O=C(O)C(c1ccccc1)(c1ccccc1)c1ccccc1Cl [Compound 80] | 62 | – | 206 | 97 | – | – | –
22 | COc1ccc(C(O)(c2ccccc2)c2ccccc2Cl)cc1 (stereo not shown) [Compound 81] | 53 | – | 187 | 100 | – | – | –
23 | CC(=O)CC(c1ccccc1)(c1ccccc1)c1ccccc1Cl [Compound 82, 4-(2-chlorophenyl)-4,4-diphenyl-2-butanone] | 98 | 5000 | 27 | 99.5 | – | – | –
24 | COc1ccc(C(c2ccccc2)c2ccccc2Cl)cc1 (stereo not shown) [Compound 83] | 80 | 6400 | 918 | 96.7 | – | – | –
25 | Oc1ccc(C(O)(c2ccccc2)c2ccccc2Cl)cc1 (stereo not drawn) [Compound 84, α-(2-chlorophenyl)-α-(4-hydroxyphenyl)benzyl alcohol] | 99 | 1000 | – | 95.3 | 56.5 to 60 | 1270 | –
26 | Oc1ccc(C(c2ccccc2)c2ccccc2Cl)cc1 (stereo not shown) [Compound 85] | 91 | 7000 | 739 | 98 | – | – | –
27 | Cc1ccc(C(c2cc(Cl)ccc2N)c2ccccc2Cl)cc1 (stereo not shown) [Compound 86] | 99 | 2400 | 237 to 455 | 93.9 | – | – | –
28 | CCOC(=O)C(c1ccccc1)(c1ccccc1)N1CCCCC1 [Compound 87] | 96 | 2200 | 68 | 99 | – | – | –
29 | OC(c1ccccc1)(c1ccccc1)C1CCCCC1 [Compound 88, cyclohexyl-diphenylmethanol] | 94 | 9500 | 862 | 99 | 76 to 78 | – | –
30 | N#CC(c1ccccc1)(c1ccccc1)C1CCCCC1 [Compound 89, cyclohexyl-diphenylacetonitrile] | 98 | 900 | 6130 | 70.2 | 117.5 to 119 | – | –
31 | NC(=O)C(c1ccccc1)(c1ccccc1)C1CCCCC1 [Compound 90, Cyclohexyl-diphenylacetamide] | 86 | 3000 | 72 | 98.3 | – | – | –

From US7531573B2 (priority 1994, dated 2009)
